IC50 data for 82 compounds are collected here from PubChem BioAssay AID1645868 (Buhrlage Lab, Dana-Farber Cancer Institute and Novartis …, 2021).

The source made the active and inactive calls.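 The calls were made as follows: active = maximal percent inhibition of the deubiquitinase OTUD3 of at least 30% across the tested doses; inactive = the rest.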

For the assay, the target named is OTU domain-containing protein 3 (Homo sapiens) (UniProt Q5T2D3). In words: Validation of screening hits, potency titration, in vitro enzymatic, OTU domain-containing protein 3 DUB inhibitors (AID 1645868). The note with it: purified OTUD3, ubiquitin-rhodamine cleavage fluorescence, 2 h.
Sequence of OTU domain-containing protein 3 (Homo sapiens) (Q5T2D3 whole entry, looked up, the tested form may be a part): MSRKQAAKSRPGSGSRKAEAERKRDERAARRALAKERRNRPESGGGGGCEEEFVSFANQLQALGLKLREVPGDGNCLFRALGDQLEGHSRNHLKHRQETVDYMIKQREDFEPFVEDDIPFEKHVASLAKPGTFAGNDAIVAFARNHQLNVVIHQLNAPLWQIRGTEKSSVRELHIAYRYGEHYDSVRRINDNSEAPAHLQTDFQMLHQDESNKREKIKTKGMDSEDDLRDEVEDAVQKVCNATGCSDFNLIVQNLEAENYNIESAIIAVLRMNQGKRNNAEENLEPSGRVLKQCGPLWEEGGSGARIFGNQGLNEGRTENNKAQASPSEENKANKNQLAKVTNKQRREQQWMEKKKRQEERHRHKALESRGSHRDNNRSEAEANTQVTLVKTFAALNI
Regarding `CN1CC2CN(C(=O)Nc3cccnc3)CCN2Cc2ccccc21` (configuration not stated), the IC50 (as a rule, the concentration at which inhibition is half-maximal) was > 50 µM (inactive). Regarding `NS(=O)(=O)c1cccc(NC(=O)CN2CCCc3ccccc32)c1`, the IC50 was > 50 µM (inactive). As for `Cc1ccc2c(c1)[C@]1(C(=O)N2)[C@@H](C(=O)c2ccccc2)[C@]2(C(=O)Nc3ccccc32)[C@@H]2CCCN21`, the figure is 25.1 µM. For `O=c1c(OC2O[C@H](CO)[C@H](O)[C@H](O)[C@H]2O)c(-c2ccc(O)cc2)oc2cc(O)cc(O)c12` (some centres not stated), the IC50 was 49.9 µM.

Consider `O=C(CSc1nnc(-c2ccncc2)n1Cc1ccccc1)c1ccc2[nH]c(O)cc2c1`, for which the IC50 was > 50 µM (inactive).

As to `COc1ccc(OC)c(NC(=O)Cn2c(=O)n(CC3CCC(C(=O)NCCc4ccccc4)CC3)c(=O)c3ccccc32)c1` (configuration not stated), the IC50 was 31.3 µM. Next, `COC(=O)c1ccc(C(=O)Nc2cc3ccccc3cc2NC(=O)c2ccc(C(=O)OC)cc2)cc1`: 19.1 µM; `O=C(c1ccco1)N1CCN=C1SCc1ccccc1F`: > 50 µM (inactive). As for `CCn1cnc2c1c(=O)n(CC(=O)NCc1ccccc1Cl)c(=O)n2Cc1ccccc1`, the figure is > 50 µM (inactive); as for `Cc1ccc(OC(=O)c2cn(-c3ccccc3)nc2-c2cccnc2)cc1`, > 50 µM (inactive); as for `CN1CCN(C(=O)c2ccn(-c3ccc4ccc(-c5cnn(C)c5)cn34)n2)CC1`, > 50 µM (inactive). Take `COc1ccc2cc3c(nc2c1)OC(=O)N(CCc1cccc(F)c1)C3`: the IC50 was > 50 µM (inactive). As for `CC(C)CC(=O)Nc1cc(F)c2nc(N3CCOCC3)ccc2c1`, the IC50 was > 50 µM (inactive).

On to `COc1ccc(C)cc1NC(=O)Cc1csc(NC(=O)c2ccc(=O)[nH]c2)n1`, for which the IC50 is > 50 µM (inactive). Consider `Cc1ccccc1OCCSc1nc2ccccc2n1CC(=O)NC1CC1`, for which the IC50 is 25.4 µM. Take `Cc1ccc(C(=O)Nc2cc3c4c(c2)CC(=O)N4CCC3)cc1`: the IC50 was > 50 µM (inactive). As for `CC(C)(C)n1ncc2c(=O)n(Cc3cccc([N+](=O)[O-])c3)cnc21`, the figure is > 50 µM (inactive); as for `CC1CC(=O)Nc2ccccc2N1S(=O)(=O)c1ccc(C#N)cc1` (configuration not stated), > 50 µM (inactive); as for `CCc1cccc2c(C(=O)COc3ccc(C#N)cc3)c[nH]c12`, 47.3 µM. As for `Cc1cc(=O)n2c3c(c4c(cc13)c(CO)cc(=O)n4C)OC2`, the figure is > 50 µM (inactive); as for `O=S1(=O)CCN(Cc2ccccc2)c2c(F)nc(N3CCCCC3)c(F)c21`, > 50 µM (inactive). Take `CCOC(=O)c1cnn(-c2ccc(C(=O)Nc3ccc(C)c(Cl)c3)cc2)c1N`: the IC50 is > 50 µM (inactive). As for `Cc1nc(-c2ccccn2)sc1C(=O)Nc1ccc(C#N)cc1`, the figure is > 50 µM (inactive); as for `CN(C)c1ccc(C2CC(c3c(O)n(C)c(=O)[nH]c3=O)=Nc3ccccc3S2)cc1` (configuration not stated), > 50 µM (inactive). As to `Cc1cc(N2CCC(NC(=O)NCc3ccc(F)cc3)C2=O)ccc1F` (configuration not stated), the IC50 was 30.4 µM. As for `COc1cccc(NC(=O)C2CCN(C(=O)c3cc(-c4cccnc4)n[nH]3)CC2)c1`, the figure is > 50 µM (inactive). Next, `O=S1(=O)CCN(Cc2c(F)cccc2F)c2c(F)nc(N3CCOCC3)c(F)c21`: > 50 µM (inactive); `CO/C1=C\C(C)=C/[C@@H](C)[C@@H](O)[C@@H](C)C/C(C)=C/C=C/[C@H](OC)[C@@H]([C@@H](C)[C@@H](O)[C@H](C)[C@@]2(O)C[C@@H](OC(=O)/C=C/C(N)=O)[C@H](C)[C@@H](C(C)C)O2)OC1=O`: > 50 µM (inactive); `Cc1ccccc1NC(=O)c1ccn(COc2ccc(Cl)cc2)n1`: > 50 µM (inactive). As for `O=C(Nc1ccc(SCc2nnc(-c3ccccc3)o2)cc1)C1CC1`, the figure is > 50 µM (inactive).

Turning to `CC1=C[C@@H](C)CC[C@H]2O[C@@H](C3=C(O)C(=O)C(C)=C4O[C@](O)(C=C43)[C@@H](C)C[C@H](C)C1)[C@H](C)[C@@H](O)[C@H]2C`, the half-maximal inhibitory concentration (IC50) is 20 µM. In the case of `CN1C(=O)COc2ccc(NC(=O)c3cc(-c4ccccc4)on3)cc21`, the IC50 is > 50 µM (inactive). Next, `CCn1c(=O)c(=O)[nH]c2cc(C(=O)Nc3cccc(-c4csc(C)n4)c3)ccc21`: > 50 µM (inactive); `CC(=O)c1ccc(NC(=O)CC2C(=O)Nc3nc4ccccc4n32)cc1` (configuration not stated): 37.2 µM.

In the case of `Cc1ccc(Cl)cc1NC(=O)c1cc(-c2ccccn2)n[nH]1`, the IC50 is 24.5 µM. Next, `Cc1ccc2nc(CNC(=O)c3ccccc3-c3nc(-c4ccc(F)cc4)no3)[nH]c2c1`: 39.9 µM; `NC(=O)c1ccc(NC(=O)Cc2cc(-c3ccc(Cl)cc3)on2)cc1`: > 50 µM (inactive).

For the compound `O=C(Cn1cc(S(=O)(=O)Cc2ccc(Cl)cc2)c2ccccc21)N1CCCCC1`, the IC50 was > 50 µM (inactive). As for `Cc1ccc(C)c(S(=O)(=O)N2CCC3(CC2)NC(=O)c2ccccc2N3)c1`, the figure is > 50 µM (inactive); as for `Cn1c(=O)[nH]c2nncnc2c1=O`, > 50 µM (inactive). Next, `FC(F)(F)c1ccccc1CCN1CCc2nc3ccc(Cl)cc3cc2C1`: > 50 µM (inactive); `N#Cc1ccc(NC(=O)COC(=O)c2ccc3ccccc3n2)cc1`: > 50 µM (inactive); `COc1ccc(-c2nc(-c3nnn(Cc4ccc(F)cc4)c3C)no2)c(OC)c1`: 20.4 µM. As for `O=C(/C=C/c1ccccc1)N1CCN(C2=NS(=O)(=O)c3ccccc32)CC1`, the figure is > 50 µM (inactive). On to `COc1ccc(-c2ocnc2C(=O)Nc2cccc(Cl)c2C)cc1OC`, for which the IC50 was > 50 µM (inactive). Turning to `COc1ccc(OC)c(C2CC(=O)Nc3n[nH]c(-c4ccccc4)c32)c1` (configuration not stated), the IC50 was 37.8 µM. On to `O=C1COc2ccccc2N1Cc1noc(-c2ccccc2)n1`, for which the IC50 is > 50 µM (inactive). `CCOc1ccc2[nH]c(=O)c(CN(C(=O)c3cccs3)C3CCCC3)cc2c1`: the 50% inhibitory concentration (IC50) was 29.2 µM. As for `Cc1c(OCC(=O)NCC(=O)N2CCC3(O)CCCCC3C2)ccc2c3c(c(=O)oc12)CCCC3` (configuration not stated), the figure is > 50 µM (inactive). Next, `Cc1noc(-c2cccn(Cc3cccc(C(F)(F)F)c3)c2=O)n1`: > 50 µM (inactive).

Consider `O=S(=O)(c1ccc2c(c1)OCCO2)N(Cc1ccccc1)Cc1nnc(-c2ccccc2)o1`, for which the IC50 was > 50 µM (inactive).

Take `Cn1nc(-c2ccccc2)c(COC(=O)c2ccc([N+](=O)[O-])cc2)c1Cl`: the IC50 was > 50 µM (inactive).

Turning to `N#Cc1cccnc1N1CCN(C(=O)Nc2cccc3ccccc23)CC1`, the IC50 is > 50 µM (inactive). As to `COc1ccccc1C(=O)NCC(c1ccc2c(c1)CCCN2C)N1CCCC1` (configuration not stated), the IC50 was > 50 µM (inactive). Turning to `Cc1ccc(NC(=O)c2cnc3c(c2)c(=O)n(C)c(=O)n3C)cc1`, the concentration for half-maximal inhibition (IC50) was 20 µM. For the compound `Cc1ccc(NC(=O)CCC(=O)Nc2ccc3nc(N4CCCCC4)cc(C)c3c2)c(Br)c1`, the IC50 is 49.8 µM. On to `COc1ccccc1-c1nc2c3c(C)c(C)n(Cc4cccnc4)c3ncn2n1`, for which the IC50 was > 50 µM (inactive).

On to `Cc1ccc(OCCn2c(=N)n(C(C)C)c3ccccc32)cc1`, for which the IC50 was > 50 µM (inactive).

On to `CC1OC2CC(O)C1(O)C1=C2C(=O)c2c(O)c3c(c(O)c2C1=O)[C@H](C)O[C@H]1CC(=O)O[C@@H]31` (some centres not stated), for which the IC50 is > 50 µM (inactive). With `Cc1ccc(C(=O)Nc2c(C(=O)N3CCN(c4ccccc4)CC3)[nH]c3ccccc23)cc1`, the IC50 is > 50 µM (inactive).

As for `Cc1ccc(-c2noc(-c3nnc(SCC(=O)NC4CCCC4)n3C)n2)cc1`, the IC50 was > 50 µM (inactive).

`Cc1cnnn1-c1ccc(C(=O)Nc2cc(Cl)ccc2Cl)cc1`: the IC50 is > 50 µM (inactive).

Consider `COc1cccc(C(=O)Nc2ccc(-n3cnnn3)cc2)c1`, for which the IC50 is > 50 µM (inactive). Consider `FC(F)(F)c1cccc(N2CCN(c3nc4ccccc4n4nnnc34)CC2)c1`, for which the IC50 is > 50 µM (inactive). Next, `O=C(Cn1cnc(-c2noc(-c3ccncc3)n2)c1)N1CCN(c2ccccc2F)CC1`: > 50 µM (inactive). As for `CCOc1ccc2c(c1)c(=O)c(C(=O)c1ccccc1)cn2CC(=O)Nc1ccccc1`, the IC50 is 19.4 µM. Next, `O=C(CSc1nnc(-c2ccc3c(c2)OCO3)n1-c1ccccc1)OCC(=O)c1ccccc1`: > 50 µM (inactive); `NS(=O)(=O)c1ccc(NS(=O)(=O)c2ccc(NC(=O)Nc3ccc(Cl)cc3)cc2)cc1`: 38.2 µM; `Cn1c(=O)[nH]c(=O)c2c1nc1n(CCc3ccccc3)c(-c3ccccc3)cn21`: > 50 µM (inactive). With `O=C(OCc1cccc(Cl)c1)c1ccc2ccccc2n1`, the IC50 was > 50 µM (inactive). Consider `Cc1c(OCC(=O)Nc2nc3ccccc3[nH]2)ccc2c3c(c(=O)oc12)CCC3`, for which the IC50 is 2.66 µM. Next, `Cc1ccccc1N1C(=O)/C(=C\c2cccn2C)c2ccccc2C1=O`: > 50 µM (inactive). Regarding `O=C(CCn1c(=O)c2ccccc2n(Cc2cc(=O)n3ccccc3n2)c1=O)NCCc1ccc(Cl)cc1`, the IC50 is 30.6 µM. Next, `CCc1noc(Cn2cnc3c4ccccc4n(CC(=O)NC4CCCCC4)c3c2=O)n1`: > 50 µM (inactive); `COc1ccc(-c2cc3nc(C)cc(Nc4ccc(F)cc4)n3n2)cc1OC`: > 50 µM (inactive); `O=C(CN1C(=O)C2CCCC2=Nc2ccccc21)Nc1cc(F)ccc1F` (configuration not stated): 19 µM.

Consider `COc1cccc(NC(=O)C2CCC(CNS(=O)(=O)c3ccc4c(c3)C(C)(C)C(=O)N4C)CC2)c1` (configuration not stated), for which the IC50 was > 50 µM (inactive).

On to `O=[N+]([O-])c1ccccc1C(c1c[nH]c2ccccc12)c1c[nH]c2ccccc12`, for which the IC50 was 49.4 µM. As for `O=C(COC(=O)c1ccc(NS(=O)(=O)c2ccc3c(c2)OCCO3)cc1)NCc1ccc(Cl)cc1`, the figure is > 50 µM (inactive); as for `O=S(=O)(c1ccccc1Cl)N1CCN(c2ccc3nnc(-c4ccco4)n3n2)CC1`, > 50 µM (inactive); as for `CCc1ccc2[nH]c3c(c(=O)c2c1)CN(CC(=O)NCc1ccc2c(c1)OCO2)CC3`, 28.6 µM. Regarding `O=C(Cc1cccs1)Nc1cc(F)c2nc(N3CCOCC3)ccc2c1`, the IC50 is > 50 µM (inactive).
